Laboratory results reported in patent US20070259865A1, “Agent for Promoting the Recovery from Dysfunction After the Onset of Central Neurological Disease” (Astellas Pharma Inc., priority 2004, published 2007).

What was measured:
[1] = system: cerebral infarction rat model; test: Foot-fault test, walking function in cerebral infarction rat model; type: in vivo; conditions: vs. control group; forepaw on the disordered side; Compound A 5 and 10 mg/kg; D-amphetamine 0.75 and 1.5 mg/kg intraperitoneally; FIGS. 1-3 (b)
Text: (§1) Blood Flow Metab. 8, 474-485, 1988.

[2] = system: cerebral infarction rat model; test: Beam-walking test, walking function in cerebral infarction rat model; type: in vivo; conditions: vs. control group; male spontaneous hypertension rats after MCA occlusion; Compound A 5 and 10 mg/kg; D-amphetamine 0.75 and 1.5 mg/kg intraperitoneally; FIGS. 1-3 (a)
Text: as §1

[3] = system: spontaneous hypertension rats; test: Effect on the circulatory system (heart rate); type: in vivo, rat
Protocol: After a cannula was inserted into the common carotid artery, heart rates were monitored. […] For the control group, physiological saline was administered intraperitoneally and the measurement was similarly conducted. Statistical analysis was conducted by one-way repeated-measures analysis of variance.

[4] = system: cerebral infarction rat model; test: Staircase test, forepaw function in cerebral infarction rat model; conditions: vs. control group, Compound A 5 mg/kg orally five times per week, D-amphetamine 1.5 mg/kg intraperitoneally twice per week, to week 6; for forepaw dysfunction, number of displaced pellets in the staircase test: FIG. 4 (a); for forepaw dysfunction, number of eaten pellets in the staircase test: FIG. 4 (b)
[5] = system: cerebral infarction rat model; conditions: D-amphetamine 0.75 and 1.5 mg/kg, FIG. 5

Compound	improvement effect on gait function in the foot-fault test (% foot-faults) [1]	improvement effect on gait function in the beam-walking test (score) [2]	effect on heart rate ([3]; rat, in vivo)	forepaw dysfunction, number of displaced pellets in the staircase test [4]	forepaw dysfunction, number of eaten pellets in the staircase test [4]	effect on heart rate ([3]; recorded until 4 hours after administration, Compound A orally, D-amphetamine intraperitoneally, vs. basal value, FIG. 6)	effect on the number of steps (locomotor activity, excitatory effect) [5]
CNCCC(Oc1ccc(C(F)(F)F)cc1)c1ccccc1 (centres unmarked) [fluoxetine, Fluoxetine]	no evident improvement effect	no evident improvement effect					
Cl.Fc1ccc(OC[C@@H]2CNCCO2)c2c1CCC2 [Compound A, (S)-2-[[(7-Fluoro-4-indanyl)oxy]methyl]morpholine hydrochloride]	significant improvement effect	significant improvement effect	no effect on heart rate	significant improvement effect	significant improvement effect		
C[C@H](N)Cc1ccccc1 [D-amphetamine]				the effect was not significant	the effect was not significant	significant accentuation of heart rate	remarkable increase in the number of steps
